Laboratory results taken from patent publication US6034092A, “2-[2-[(2-hydroxyethyl)amino]ethy [ l]-5-[[2-methylamino)ethyl]amino]indazolo4,3-gh]isoquinolin-6(2H)-one as antitumor agent” (priority 1995, dated 2000).
Values after ≈ are worked out from the molar mass of the structure shown. Where two headings read alike, the source gives them in different places.

Tests used:
P388 murine leukemia = assay: in vivo P388 murine leukemia model, iv/iv; settings: for survival time of the treated animals (in words): P388, compared with controls (untreated animals) or with analogues
Method: (§1) The evaluation of the biological activity for the compound of this invention was performed "in vitro" and "in vivo" following the protocols developed by the U.S. National Cancer Institute.
Treatment was initiated approximately 24 hours after tumor transplantation and dosages of the product were administered iv according to preestablished protocols, usually at 3-day intervals. The studies were done over a 60 day period and the date of death for each animal was recorded. The % T/C was determined using the median survival time (MST) for each group according to the formula
T/C%=[(MSTtreated)/(MSTcontrols)]×100

[1] = rat; cited from earlier work
[2] = W.H.O. grade; dose-limiting, phase I and II; cited from earlier work
ovary tumor A2780 = assay: in vivo human ovary tumor xenograft A2780 in mice, sc/iv; settings: A 2780 sc/iv q4dx3; for Tumor regression: 30 days after end of treatment
Method: as §1
(§2) Further in vivo studies of biological activity of the compound of the invention were carried out using two human tumor xenografts, the human breast MX-1 tumor and the ovary tumor A2780 (Table II). […] The "tumor weight inhibition" can be evaluated as follows:
(§3) TWI%=100-[(average relative weight of the tumortreated /average
(§4) relative weight of the tumorcontrols)100]
(§5) By tumor regression, it is meant the reduction of the tumor mass measured 30 days after the end of the treatment compared with the tumor starting weight. Complete tumor regression means the disappearance of the tumor mass.
(§6) In vivo biological evaluation of the compound of the invention (I),
(§7) and A 2780) models in mice

human breast MX-1 tumor = assay: in vivo human breast tumor xenograft MX-1 in mice, sc/iv; settings: MX-1 sc/iv q7dx3
Method: as §1, §2, §3, §4, §5, §6, §7

[3] = tested on: human colon adenocarcinoma cell line (LoVo); assay: in vitro cytotoxic activity, MTT assay, LoVo; type: cell-based; settings: for IC50: Homo sapiens, read-out: IC50 ± S.D.
Method: as §1
The evaluation of the "in vitro" cytotoxic activity was performed using a human colon adenocarcinoma cell line (Lovo) isolated from a metastatic nodule.

[4] = man; cited from earlier work
[5] = tested on: cell histotypes developing resistance already against doxorubicin; settings: doxorubicin-resistant cell histotypes, over-expression of glycoprotein P; cited from earlier work
[6] = limiting aspect; cited from earlier work
[7] = tested on: human breast MX-1 tumor and the ovary tumor A2780; assay: in vivo antitumor evaluation in human tumor xenografts MX-1 and A2780; set-up: species or system human tumor xenografts in mice; settings: for complete tumor regressions (in words): contrary to CI-941
Method: as §2, §3, §4, §5

[8] = 1 hour after treatment with the medicament

O=C1c2c(O)cccc2-c2nn(CCNCCO)c3ccc(NCCNCCO)c1c23 [CI-941]
T/C % (P388 murine leukemia; P388 iv/iv + 1,4,7, 6 mg/kg): 133% | Tox. (P388 murine leukemia; P388 iv/iv + 1,4,7, 6 mg/kg): 0/8 | T/C % (P388 murine leukemia; P388 iv/iv + 1,4,7, 9 mg/kg): 144% | Tox. (P388 murine leukemia; P388 iv/iv + 1,4,7, 9 mg/kg): 0/8 | T/C % (P388 murine leukemia; P388 iv/iv + 1,4,7, 13.5 mg/kg): 133% | Tox. (P388 murine leukemia; P388 iv/iv + 1,4,7, 13.5 mg/kg): 0/8 | nephrotoxicity [1]: marked nephrotoxicity | leukopenia [2]: severe leukopenia (W.H.O. grade 3 and 4) | neutropenia [2]: neutropenia (W.H.O. grade 4) | TWI % (ovary tumor A2780; 8 mg/kg): 87% | Tox. (ovary tumor A2780; 8 mg/kg): 0/7 | Tumor regression (ovary tumor A2780; 8 mg/kg): 0/7 | TWI % (ovary tumor A2780; 10.4 mg/kg): 97% | Tox. (ovary tumor A2780; 10.4 mg/kg): 0/7 | Tumor regression (ovary tumor A2780; 10.4 mg/kg): 0/7 | TWI % (ovary tumor A2780; 13.5 mg/kg): 100% | Tox. (ovary tumor A2780; 13.5 mg/kg): 5/7 | Tumor regression (ovary tumor A2780; 13.5 mg/kg): 1/7 | TWI % (human breast MX-1 tumor; 9 mg/kg): 83% | Tox. (human breast MX-1 tumor; 9 mg/kg): 0/7 | TWI % (human breast MX-1 tumor; 13.5 mg/kg): 93% | Tox. (human breast MX-1 tumor; 13.5 mg/kg): 0/40 | TWI % (human breast MX-1 tumor; 17.5 mg/kg): 97% | Tox. (human breast MX-1 tumor; 17.5 mg/kg): 9/33 | IC50 ([3]; 1 h): 0.039 ± 0.035 µg/mL (≈ 0.0917 µM) | cardiotoxicity [4]: irreversible cardiotoxicity

O=C1c2ccccc2C(=O)c2c(NCCNCCO)ccc(NCCNCCO)c21 [ametantrone, 4-bis{[2-(2-hydroxyethylamino)ethyl]amino]anthracene-9,10-dione]
cross-resistance [5]: cross-resistance | toxicity (myelodepression) [6]: mielodepressive toxic effect

CNCCNc1ccc2c3c(nn2CCNCCO)-c2cnccc2C(=O)c13 [compound (I)]
tumor weight inhibition (in words) ([7]; MX-1 and A2780 xenografts, compared with CI-941): activity equal if not higher than CI-941 | toxic effects (in words) ([7]; tested doses): absence of toxic effects | complete tumor regressions (in words) ([7]; tested doses, listed as 2-[2-[(2-hydroxyethyl)amino]ethyl]-5-[[2-(methylamino)ethyl]amino]indazolo[4,3-g): complete regression of the tumor in a statistically significant number of animals | complete tumor regressions (in words) ([7]; tested doses, listed as compound of the invention): a significant number of complete tumor regressions | survival time of the treated animals (in words) (P388 murine leukemia; listed as 2-[2-[(2-hydroxyethyl)amino]ethyl]-5-[[2-(methylamino)ethyl]amino]indazolo[4,3-g): higher increase in the average survival time of the treated animals (expressed as % T/C) than that obtained with its analogues | survival time of the treated animals (in words) (P388 murine leukemia; listed as compound of the invention): active in increasing the survival time of the treated animals | T/C % (P388 murine leukemia; P388 iv/iv + 1,4,7, 7.5 mg/kg): 167% | tolerability (in words) (P388 murine leukemia; compared with mitoxantrone, Table II): better tolerated than mitoxantrone | Tox. (P388 murine leukemia; mouse, in vivo, iv, 7.5 mg/kg): 0/8 | TWI % (ovary tumor A2780; 7.5 mg/kg): 99% | Tox. (ovary tumor A2780; 7.5 mg/kg): 0/7 | Tumor regression (ovary tumor A2780; 7.5 mg/kg): 4/7 | TWI % (ovary tumor A2780; 9.7 mg/kg): 100% | Tox. (ovary tumor A2780; 9.7 mg/kg): 0/7 | Tumor regression (ovary tumor A2780; 9.7 mg/kg): 6/7 | TWI % (human breast MX-1 tumor; 8.9 mg/kg): 78% | Tox. (human breast MX-1 tumor; 8.9 mg/kg): 0/5 | TWI % (human breast MX-1 tumor; 17.5 mg/kg): 96% | Tox. (human breast MX-1 tumor; 17.5 mg/kg): 0/5 | IC50 [3, 8]: 0.54 ± 0.17 µg/mL (≈ 1.42 µM) | in vitro cytotoxic activity (in words) ([3]; MTT assay, compared with doxorubicin): activity comparable to doxorubicin

COc1cccc2c1C(=O)c1c(O)c3c(c(O)c1C2=O)C[C@@](O)(C(=O)CO)C[C@@H]3O[C@H]1C[C@H](N)[C@H](O)[C@H](C)O1 [doxorubicin]
IC50 ([3]; 1 h): 0.7 ± 0.49 µg/mL (≈ 1.29 µM)

O=C1c2c(O)ccc(O)c2C(=O)c2c(NCCNCCO)ccc(NCCNCCO)c21 [mitoxantrone, 5,8-dihydroxy-1,4-bis{[2-(2-hydroxyethylamino)ethyly]amino]anthracene-9,10-dione]
T/C % (P388 murine leukemia; P388 iv/iv + 1,4,7, 3 mg/kg): 195% | Tox. (P388 murine leukemia; P388 iv/iv + 1,4,7, 3 mg/kg): 16/284 | TWI % (human breast MX-1 tumor; 4.5 mg/kg): 74% | cross-resistance [5]: cross-resistance | IC50 [3, 8]: 0.026 ± 0.017 µg/mL (≈ 0.0585 µM) | toxicity (cardiotoxicity) [6]: cardiotoxicity | toxicity (myelodepression) [6]: mielodepressive toxic effect
